From PubChem BioAssay AID1963982 (Molecular Pharmacology Branch, DTP, NCI, 2024)

Test system: 313798-341-R-J2-PDC spheroids, viability
Test: Anticancer human tumor 313798-341-R-J2-PDC patient-derived cervical squamous cell carcinoma cell line growth inhibition [PI3K]
Details: spheroids with HUVEC and MSC; for IC50: curve of first compound; for viability, T/C: stronger effect = lower value
In short: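 Combination activity was assessed by viability in multicellular tumor spheroids carrying HUVEC and MSC components. Agents were tested with PI3K inhibitors from a Cmax-based top dose (or 10 microM) downward in half-log increments.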
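Also: spheroids exposed to compounds for seven days.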
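For viability, T/C in this document: 100% = DMSO vehicle control viability.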

With CCN1CCN(Cc2ccc(Nc3ncc(F)c(-c4cc(F)c5nc(C)n(C(C)C)c5c4)n3)nc2)CC1 + CC(Nc1ccc2c(c1)OCCn1cc(N3C(=O)OCC3C(F)F)nc1-2)C(N)=O the IC50 (second compound 0.00316 µM) was over 1 µM, the IC50 (second compound 0.01 µM) was over 1 µM and the IC50 (second compound 0.0316 µM) was over 1 µM. The IC50 (second compound 0.1 µM) was over 1 µM, the IC50 (second compound 0.316 µM) was over 1 µM and the IC50 (second compound 1 µM) was over 1 µM. It also gave a viability, T/C (second compound 0.00316 µM, first compound 0.00316 µM) of 102%, a viability, T/C (second compound 0.00316 µM, first compound 0.01 µM) of 104% and a viability, T/C (second compound 0.00316 µM, first compound 0.0316 µM) of 99.3%. The viability, T/C (second compound 0.00316 µM, first compound 0.1 µM) was 105%, the viability, T/C (second compound 0.00316 µM, first compound 0.316 µM) was 123% and the viability, T/C (second compound 0.00316 µM, first compound 1 µM) was 131%. For the same molecule, the viability, T/C (second compound 0.01 µM, first compound 0.00316 µM) was 94.9%, the viability, T/C (second compound 0.01 µM, first compound 0.01 µM) was 102% and the viability, T/C (second compound 0.01 µM, first compound 0.0316 µM) was 96.8%. The viability, T/C (second compound 0.01 µM, first compound 0.1 µM) was 125%, the viability, T/C (second compound 0.01 µM, first compound 0.316 µM) was 138% and the viability, T/C (second compound 0.01 µM, first compound 1 µM) was 120%. It also gave a viability, T/C (second compound 0.0316 µM, first compound 0.00316 µM) of 103%, a viability, T/C (second compound 0.0316 µM, first compound 0.01 µM) of 104% and a viability, T/C (second compound 0.0316 µM, first compound 0.0316 µM) of 117%. For the same molecule, the viability, T/C (second compound 0.0316 µM, first compound 0.1 µM) was 115%, the viability, T/C (second compound 0.0316 µM, first compound 0.316 µM) was 133% and the viability, T/C (second compound 0.0316 µM, first compound 1 µM) was 110%. It also gave a viability, T/C (second compound 0.1 µM, first compound 0.00316 µM) of 115%, a viability, T/C (second compound 0.1 µM, first compound 0.01 µM) of 103% and a viability, T/C (second compound 0.1 µM, first compound 0.0316 µM) of 90.2%. For the same molecule, the viability, T/C (second compound 0.1 µM, first compound 0.1 µM) was 107%, the viability, T/C (second compound 0.1 µM, first compound 0.316 µM) was 101% and the viability, T/C (second compound 0.1 µM, first compound 1 µM) was 86.1%. The viability, T/C (second compound 0.316 µM, first compound 0.00316 µM) was 86.1%, the viability, T/C (second compound 0.316 µM, first compound 0.01 µM) was 76.7% and the viability, T/C (second compound 0.316 µM, first compound 0.0316 µM) was 71.4%. The viability, T/C (second compound 0.316 µM, first compound 0.1 µM) was 75.7%, the viability, T/C (second compound 0.316 µM, first compound 0.316 µM) was 77.7% and the viability, T/C (second compound 0.316 µM, first compound 1 µM) was 61.7%. The viability, T/C (second compound 1 µM, first compound 0.00316 µM) was 57.3%, the viability, T/C (second compound 1 µM, first compound 0.01 µM) was 48.3% and the viability, T/C (second compound 1 µM, first compound 0.0316 µM) was 52.3%. It also gave a viability, T/C (second compound 1 µM, first compound 0.1 µM) of 56.8%, a viability, T/C (second compound 1 µM, first compound 0.316 µM) of 52.7% and a viability, T/C (second compound 1 µM, first compound 1 µM) of 58%.
